{"source": "patent US9949981B2", "about": "“Compositions and methods for treating proliferation disorders” (Arqule, Inc., priority 2014, dated 2018)", "key": {"[1]": {"system": "pPRAS40 in AN3CA endometrial cancer cells", "assay": "pPRAS40 in AN3CA cells, two hour treatment", "conditions": "normal medium, 2 hours, FIG. 17"}, "[2]": {"system": "TCCSUP", "assay": "MTS assay, combination study", "conditions": "Homo sapiens, TCC-SUP, 72 h"}, "[3]": {"system": "U87MG", "assay": "MTS assay, combination study", "conditions": "Homo sapiens, U-87 MG, 72 h"}, "[4]": {"system": "pAKT in KU-19-19 (E17K) mutant bladder cancer cells", "assay": "pAKT in KU-19-19 cells, two hour treatment", "conditions": "normal medium, 2 hours, FIGS. 17 and 18"}, "[5]": {"system": "LnCap", "assay": "MTS assay", "assay_type": "cell-based", "conditions": "Homo sapiens, read-out: Average of [CELL], IC50, MTS (72 hours; 10 Percent; FBS)", "from_the_text": "(§1) Cell proliferation analysis."}, "[6]": {"system": "AN3CA", "assay": "MTS assay", "assay_type": "cell-based", "conditions": "Homo sapiens, AN3-CA, read-out: Average of [CELL], IC50, MTS (72 hours; 10 Percent; FBS)", "from_the_text": "as §1"}, "[7]": {"system": "Zr75-1", "assay": "MTS assay", "assay_type": "cell-based", "conditions": "Homo sapiens, ZR-75-1, read-out: Average of [CELL], IC50, MTS (72 hours; 10 Percent; FBS)", "from_the_text": "as §1"}, "[8]": {"system": "BT474", "assay": "MTS assay", "assay_type": "cell-based", "conditions": "Homo sapiens, BT-474, read-out: Average of [CELL], IC50, MTS (72 hours; 10 Percent; FBS)", "from_the_text": "as §1"}, "[9]": {"system": "A2780", "assay": "MTS assay", "assay_type": "cell-based", "conditions": "Homo sapiens, read-out: Average of [CELL], IC50, MTS (72 hours; 10 Percent; FBS)", "from_the_text": "as §1"}, "[10]": {"system": "IGROV", "assay": "MTS assay", "assay_type": "cell-based", "conditions": "read-out: Average of [CELL], IC50, MTS (72 hours; 10 Percent; FBS)", "from_the_text": "as §1"}, "[11]": {"system": "S6 phosphorylation in Proteus single cell clones", "conditions": "24 hours"}, "[12]": {"system": "22Rv1", "assay": "MTS assay, combination study", "conditions": "Homo sapiens, 22Rv1, 72 h"}, "[13]": {"system": "IMR-32", "assay": "MTS assay, combination study", "conditions": "Homo sapiens, IMR-32, 72 h"}, "[14]": {"system": "MFE-280", "assay": "MTS assay, combination study", "conditions": "Homo sapiens, MFE-280, 72 h"}, "[15]": {"system": "SNG-II", "assay": "MTS assay, combination study", "conditions": "72 h"}, "[16]": {"system": "HCT116", "assay": "MTS assay, combination study", "conditions": "Homo sapiens, HCT-116, 72 h"}, "[17]": {"system": "AKT1 phosphorylation in PIK3CA p.H1047R mutation (PS109.3) or control cells (PS95.2)", "assay": "Phosphorylation status of AKT1 in PIK3CA p.H1047R cells", "conditions": "with or without serum; 24 hours; FIG. 10"}, "[18]": {"system": "HEC-1B", "assay": "MTS assay, combination study", "conditions": "Homo sapiens, 72 h"}, "[19]": {"system": "OVISE", "assay": "MTS assay, combination study", "conditions": "72 h"}, "[20]": {"system": "SW962", "assay": "MTS assay, combination study", "conditions": "Homo sapiens, SW 962, 72 h"}, "[21]": {"system": "MFE296", "assay": "MTS assay, combination study", "conditions": "Homo sapiens, MFE-296, 72 h"}, "[22]": {"system": "HEC-251", "assay": "MTS assay, combination study", "conditions": "HEC-251, 72 h"}, "[23]": {"system": "Ca Ski", "assay": "MTS assay, combination study", "conditions": "Homo sapiens, 72 h"}, "[24]": {"system": "pAKT in AN3CA endometrial cancer cells", "assay": "pAKT in AN3CA cells, two hour treatment", "conditions": "normal medium, 2 hours, FIG. 17"}, "[25]": {"system": "DLD1", "assay": "MTS assay, combination study", "conditions": "Homo sapiens, DLD-1, 72 h"}, "[26]": {"system": "MDA-MB-231", "assay": "MTS assay, combination study", "conditions": "Homo sapiens, MDA-MB-231, 72 h"}, "[27]": {"system": "MDA-MB-468", "assay": "MTS assay, combination study", "conditions": "Homo sapiens, MDA-MB-468, 72 h"}, "[28]": {"system": "A-172", "assay": "MTS assay, combination study", "conditions": "Homo sapiens, A 172, 72 h"}, "[29]": {"system": "SCC-9", "assay": "MTS assay, combination study", "conditions": "Homo sapiens, SCC-9, 72 h"}, "[30]": {"system": "BT20", "assay": "MTS assay, combination study", "conditions": "Homo sapiens, BT-20, 72 h"}, "[31]": {"system": "S6 phosphorylation in PIK3CA p.H1047R mutation (PS109.3) or control cells (PS95.2)", "assay": "Phosphorylation status of S6 in PIK3CA p.H1047R cells", "assay_type": "cell-based, human", "conditions": "with or without serum; 24 hours; FIGS. 11A and 11B"}}, "note": "Like-named read-outs stand apart in the source and are kept apart here.", "data": [{"molecule": "Nc1ncccc1-c1nc2ccc(-c3ccccc3)nc2n1-c1ccc(C2(N)CCC2)cc1", "note": "[Compound 1, 3-(3-(4-(1-aminocyclobutyl)phenyl)-5-phenyl-3H-imidazo[4,5-b]pyridin-2-yl)pyridin-2-amine]", "values": [{"measurement": "pPRAS40", "setting": "[1]", "result": "inhibits"}, {"measurement": "GI50", "setting": "[2]", "result": "1620 ± 310", "unit": "nM"}, {"measurement": "GI50", "setting": "[3]", "result": "11.3 ± 2.49", "unit": "µM"}, {"measurement": "pAKT", "setting": "[4]", "result": "inhibit"}, {"measurement": "IC50", "setting": "[5]", "result": 2100, "unit": "nM"}, {"measurement": "IC50", "setting": "[6]", "result": 620, "unit": "nM"}, {"measurement": "IC50", "setting": "[7]", "result": 4.2, "unit": "µM"}, {"measurement": "IC50", "setting": "[8]", "result": 1300, "unit": "nM"}, {"measurement": "IC50", "setting": "[9]", "result": 720, "unit": "nM"}, {"measurement": "IC50", "setting": "[10]", "result": 1700, "unit": "nM"}, {"measurement": "pS6 levels", "setting": "[11]; A6B and E8F9A cells grown in normal medium, FIG. 7B", "result": "only a slight affect"}, {"measurement": "pS6 levels", "setting": "[11]; A6B and E8F9A cells grown in serum free medium, FIG. 7A", "result": "does not appear to have an effect on pS6 levels"}, {"measurement": "GI50", "setting": "[12]", "result": "980 ± 360", "unit": "nM"}, {"measurement": "GI50", "setting": "[13]", "result": "4.79 ± 0.42", "unit": "µM"}, {"measurement": "GI50", "setting": "[14]", "result": "110 ± 80", "unit": "nM"}, {"measurement": "GI50", "setting": "[15]", "result": "5.85 ± 0.83", "unit": "µM"}, {"measurement": "GI50", "setting": "[16]", "result": "7.56 ± 1.64", "unit": "µM"}, {"measurement": "phosphorylation status of AKT1", "setting": "[17]", "result": "a decrease in phosphorylation with increasing dose"}, {"measurement": "GI50", "setting": "[18]", "result": "4.09 ± 0.77", "unit": "µM"}, {"measurement": "GI50", "setting": "[19]", "result": "2200 ± 810", "unit": "nM"}, {"measurement": "GI50", "setting": "[20]", "result": "4.41 ± 0.17", "unit": "µM"}, {"measurement": "GI50", "setting": "[21]", "result": "820 ± 380", "unit": "nM"}, {"measurement": "GI50", "setting": "[22]", "result": "15.2 ± 0.24", "unit": "µM"}, {"measurement": "GI50", "setting": "[23]", "result": "5.82 ± 0.68", "unit": "µM"}, {"measurement": "pAKT", "setting": "[24]", "result": "inhibits"}, {"measurement": "GI50", "setting": "[25]", "result": "13.4 ± 1.31", "unit": "µM"}, {"measurement": "GI50", "setting": "[26]", "result": 8.33, "unit": "µM"}, {"measurement": "GI50", "setting": "[27]", "result": "1340 ± 410", "unit": "nM"}, {"measurement": "GI50", "setting": "[28]", "result": "6.79 ± 1.48", "unit": "µM"}, {"measurement": "GI50", "setting": "[29]", "result": "5.37 ± 0.8", "unit": "µM"}, {"measurement": "GI50", "setting": "[30]", "result": "5.75 ± 2.77", "unit": "µM"}, {"measurement": "phosphorylation status of S6", "setting": "[31]", "result": "a modest affect on mutation positive cells both with and without serum"}]}]}
